Experiment [1] relates to oil field isolated anaerobic consortium, mainly SRB. The experiment is described as follows: Biocidal efficacy (MBC) of THPS, Tris Nitro and combination against sulfate reducing bacteria. The class given is cell-based, sulfate reducing bacteria (SRB). The following applies: alone or in the blend, minimum tested biocide concentration for bacteria kill, 40° C., 24 hours, 10^6 to 10^7 CFU/mL. As for the experimental part: Inside an anaerobic chamber (BACTRON anaerobic chamber), a deaerated sterile salt solution (3.1183 g of NaCl, 1.3082 mg of NaHCO3, 47.70 mg of KCl, 72.00 mg of CaCl2, 54.49 mg of MgSO4, 172.28 mg of Na2SO4, 43.92 mg of Na2CO3 in 1 L water) was contaminated with an oil field isolated anaerobic consortium, mainly SRB, at final bacterial concentrations of 10^6 to 10^7 CFU/mL. The aliquots of this contaminated water were then treated with THPS and Tris Nitro, or the THPS/Tris Nitro combination at different active concentration levels. After the mixtures were incubated at 40° C. for 24 hours, the biocidal efficacy was determined by minimum tested biocide concentration for bacteria kill in the aliquots (MBC). Table 1 summarizes the efficacy of each biocide and their blends, and the Synergy Index* of each combination.

The subject of the next experiment is oilfield SRB consortium. Description: Biocidal efficacy against anaerobic bacteria for a high temperature and sulfide-rich environment. The class given is cell-based, sulfate reducing bacteria (SRB). The following applies: alone or in the blend, 80° C., 7 days, 10 ppm sulfide ion, 10^4 to 10^5 CFU/mL. On the procedure: Inside an anaerobic chamber (BACTRON IV), biocides solutions were challenged with 10^4 to 10^5 CFU/mL of an oilfield SRB consortium and 10 ppm sulfide ion (added in the form of sodium sulfide). The biocide solutions were then incubated at 80° C. under anaerobic condition for 7 days. Then the biocidal efficacy was evaluated against the field SRB consortium. The biocidal efficacy was determined by the biocide dosage required for 99.999% bacterial reduction. Synergy Index was then calculated. Table 2 summarizes the efficacy of each biocide and their blends, and the Synergy Index* of each combination.

“tetrakis(hydroxymethyl)phosphonium sulfate [1:0]”: the “Average MBC (active ppm), THPS” value in experiment [1] (THPS concentration) was determined as 6.1 active ppm. Besides, the “Concentration (active ppm) required for 99.999% bacterial reduction, THPS” value in the experiment with oilfield SRB consortium (THPS concentration) was 360.0 active ppm.

Turning to `O=[N+]([O-])C(CO)(CO)CO` [0:1, tris(hydroxymethyl)nitromethane], the “Average MBC (active ppm), Tris Nitro” value in experiment [1] (Tris Nitro concentration) is 46.1 active ppm. Besides, in the experiment with oilfield SRB consortium (Tris Nitro concentration), the “Concentration (active ppm) required for 99.999% bacterial reduction, Tris Nitro” value is on record as 360 active ppm.

(Values after patent publication US8613941B1, “Synergistic antimicrobial composition” (Dow Global Technologies LLC, priority 2012, dated 2013).)
